According to ChEMBL document CHEMBL4813957, “Antitubercular properties of thiazolidin-4-ones - A review” (Eur J Med Chem, 2021):
In brackets after ≈: the same amount, converted by molar mass.

Experiments:
[1] = tested on: Mycobacterium tuberculosis; assay: Antimycobacterial activity against Mycobacterium bovis BCG; assay type: functional, organism-based; details: variant bovis BCG
[2] = tested on: Mycobacterium tuberculosis; assay: Antimycobacterial activity against Mycobacterium africanum measured up to 2 weeks; assay type: functional; details: variant africanum, 336 h, time weeks <=2
[3] = tested on: Mycobacterium tuberculosis; assay: Antimycobacterial activity Mycobacterium bovis BCG measured up to 2 weeks; assay type: functional; details: variant bovis BCG, 336 h, time weeks <=2
[4] = tested on: Mycobacterium tuberculosis; assay: Antimycobacterial activity against Mycobacterium bovis BCG assessed as inhibition of bacteria at 30 ug/ml by nitrate reductase assay; assay type: functional; details: variant bovis BCG

SMILES: O=C(O)CN1C(=O)/C(=C/c2ccc(Cl)cc2)SC1=S
- IC50 [1]: 7.4 µg/mL (≈ 23.6 µM)

SMILES: O=C(O)CCCCCC1NC(=O)CS1 (centres undefined)
- MIC [2]: 0.2 µM (≈ 0.0435 µg/mL)
- MIC [3]: 1.3 µM (≈ 0.282 µg/mL)

SMILES: Cc1nc(-c2cnccn2)sc1C(=O)NN1C(=O)CSC1c1ccccc1 (centres undefined)
- inhibition at 30 µg/mL [4]: 62%
